In patent US9499492B2, “4-(ortho)-fluorophenyl-5-fluoropyrimidin-2-yl amines containing a sulfoximine group” (BAYER PHARMA AKTIENGESELLSCHAFT, priority 2012, dated 2016):
Where a name gives a salt, the structure may show the parent alone. Read-outs that look alike come from different tables or passages of the source.

Assays:
CDK9/CycT1 [1] = molecular target: T1, CDK9/CycT1 (Homo sapiens (Human), UniProt P50750); test: CDK9/CycT1 kinase assay (Method 1a); assay type: biochemical; conditions: for IC50: 10 μM ATP; for Selectivity CDK9/CDK2: derived from Methods 1a. and 2.
Text: 1a. CDK9/CycT1 Kinase Assay:
CDK9/CycT1-inhibitory activity of compounds of the present invention was quantified employing the CDK9/CycT1 TR-FRET assay as described in the following paragraphs:
(§1) Recombinant full-length His-tagged human CDK9 and CycT1, expressed in insect cells and purified by Ni-NTA affinity chromatography, were purchased from Invitrogen (Cat. No PV4131). As substrate for the kinase reaction biotinylated peptide biotin-Ttds-[…] (C-terminus in amid form) was used which can be purchased e.g. form the company JERINI Peptide Technologies (Berlin, Germany).
(§2) For the assay 50 nl of a 100 fold concentrated solution of the test compound in DMSO was pipetted into a black low volume 384 well microtiter plate (Greiner Bio-One, Frickenhausen, Germany), 2 μl of a solution of CDK9/CycT1 in aqueous assay buffer [50 mM Tris/HCl pH 8.0, 10 mM MgCl2, 1.0 mM dithiothreitol, 0.1 mM sodium ortho-vanadate, 0.01% (v/v) Nonidet-P40 (Sigma)] were added and the mixture was incubated for 15 min at 22° C. to allow pre-binding of the test compounds to the enzyme before the start of the kinase reaction. […] The concentration of CDK9/CycT1 was adjusted depending of the activity of the enzyme lot and was chosen appropriate to have the assay in the linear range, typical concentrations were in the range of 1 μg/ml.
(§3) The resulting mixture was incubated 1 h at 22° C. to allow the formation of complex between the phosphorylated biotinylated peptide and the detection reagents. Subsequently the amount of phosphorylated substrate was evaluated by measurement of the resonance energy transfer from the Eu-chelate to the streptavidine-XL. Therefore, the fluorescence emissions at 620 nm and 665 nm after excitation at 350 nm was measured in a HTRF reader, e.g. a Rubystar (BMG Labtechnologies, Offenburg, Germany) or a Viewlux (Perkin-Elmer). The ratio of the emissions at 665 nm and at 622 nm was taken as the measure for the amount of phosphorylated substrate.

CDK9/CycT1 [2] = molecular target: T1, CDK9/CycT1; test: CDK9/CycT1 high ATP kinase assay (Method 1b); assay type: biochemical; conditions: 2 mM ATP
Procedure: 1b. CDK9/CycT1 High ATP Kinase Assay
CDK9/CycT1-inhibitory activity of compounds of the present invention at a high ATP concentration after preincubation of enzyme and test compounds was quantified employing the CDK9/CycT1 TR-FRET assay as described in the following paragraphs.
as §1, with “were purchase” for “were purchased”, “JERINI peptide technologies” for “JERINI Peptide Technologies”
as §2, with “of 0.5” for “of 1”
as §3

CDK2/CycE = CDK2/CycE (Homo sapiens (Human), UniProt P24941); test: CDK2/CycE kinase assay (Method 2); assay type: biochemical; conditions: 10 μM ATP
Text: 2. CDK2/CycE Kinase Assay:
CDK2/CycE-inhibitory activity of compounds of the present invention was quantified employing the CDK2/CycE TR-FRET assay as described in the following paragraphs:
Recombinant fusion proteins of GST and human CDK2 and of GST and human CycE, expressed in insect cells (Sf9) and purified by Glutathion-Sepharose affinity chromatography, were purchased from ProQinase GmbH (Freiburg, Germany). As substrate for the kinase reaction biotinylated peptide biotin-Ttds-[…] (C-terminus in amid form) was used which can be purchased e.g. form the company JERINI Peptide Technologies (Berlin, Germany).
as §2, with “CDK2/CycE” for “CDK9/CycT1”, “130 ng/ml.” for “1 μg/ml.”
as §3, with “TR-FRET” for “HTRF”

[3] = test system: A2780, human ovarian carcinoma cells; test: Proliferation assay, A2780 (Method 3); assay type: cell-based; conditions: Homo sapiens, A2780, 96 h, A2780, 4 days, crystal violet; read-out: Inhibition of A2780 cell proliferation IC50
Procedure: (§4) After 24 hours, the cells of one plate (zero-point plate) were stained with crystal violet (see below), while the medium of the other plates was replaced by fresh culture medium (200 μl), to which the test substances were added in various concentrations (0 μM, as well as in the range of 0.001-10 μM; the final concentration of the solvent dimethyl sulfoxide was 0.5%). The cells were incubated for 4 days in the presence of test substances. Cell proliferation was determined by staining the cells with crystal violet: the cells were fixed by adding 20 μl/measuring point of an 11% glutaric aldehyde solution for 15 minutes at room temperature. After three washing cycles of the fixed cells with water, the plates were dried at room temperature. The cells were stained by adding 100 μl/measuring point of a 0.1% crystal violet solution (pH 3.0). After three washing cycles of the stained cells with water, the plates were dried at room temperature. The dye was dissolved by adding 100 μl/measuring point of a 10% acetic acid solution. The extinction was determined by photometry at a wavelength of 595 nm. The change of cell number, in percent, was calculated by normalization of the measured values to the extinction values of the zero-point plate (=0%) and the extinction of the untreated (0 μm) cells (=100%).

[4] = test system: HeLa, human cervical tumour cells; test: Proliferation assay, HeLa (Method 3); assay type: cell-based; conditions: 4 days, crystal violet, read-out: Inhibition of HeLa cell proliferation IC50
Procedure: as §4

T1 sequence (P50750 whole entry): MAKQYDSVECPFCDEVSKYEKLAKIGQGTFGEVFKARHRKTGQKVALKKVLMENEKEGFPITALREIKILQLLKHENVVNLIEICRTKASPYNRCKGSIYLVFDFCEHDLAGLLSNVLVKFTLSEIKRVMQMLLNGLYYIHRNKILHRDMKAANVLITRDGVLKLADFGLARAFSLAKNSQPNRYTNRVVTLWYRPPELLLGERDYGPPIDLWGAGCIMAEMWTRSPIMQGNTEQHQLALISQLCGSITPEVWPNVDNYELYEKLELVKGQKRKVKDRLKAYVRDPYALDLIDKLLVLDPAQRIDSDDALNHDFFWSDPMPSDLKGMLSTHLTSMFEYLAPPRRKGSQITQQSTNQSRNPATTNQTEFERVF
T1 sequence (O60563 whole entry partner): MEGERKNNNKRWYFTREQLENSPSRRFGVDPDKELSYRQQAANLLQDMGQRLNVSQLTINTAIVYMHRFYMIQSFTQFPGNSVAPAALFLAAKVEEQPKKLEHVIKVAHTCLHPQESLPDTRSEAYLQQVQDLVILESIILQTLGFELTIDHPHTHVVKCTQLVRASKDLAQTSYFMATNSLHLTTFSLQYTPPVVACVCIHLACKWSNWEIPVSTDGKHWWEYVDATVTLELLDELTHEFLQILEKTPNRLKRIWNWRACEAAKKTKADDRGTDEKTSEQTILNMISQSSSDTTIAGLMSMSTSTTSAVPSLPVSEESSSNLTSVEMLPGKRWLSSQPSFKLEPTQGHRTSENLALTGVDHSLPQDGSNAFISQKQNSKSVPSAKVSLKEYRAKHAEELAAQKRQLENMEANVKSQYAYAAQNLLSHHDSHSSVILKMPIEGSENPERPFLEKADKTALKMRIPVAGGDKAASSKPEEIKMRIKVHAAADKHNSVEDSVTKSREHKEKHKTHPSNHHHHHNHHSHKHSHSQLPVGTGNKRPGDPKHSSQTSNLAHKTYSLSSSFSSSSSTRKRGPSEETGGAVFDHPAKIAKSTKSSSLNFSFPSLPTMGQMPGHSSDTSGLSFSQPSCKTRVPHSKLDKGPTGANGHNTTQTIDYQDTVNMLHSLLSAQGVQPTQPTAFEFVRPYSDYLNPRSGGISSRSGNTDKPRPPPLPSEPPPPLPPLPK

| Structure (SMILES) | IC50 (CDK9/CycT1 [1]) [nM] | Selectivity CDK9/CDK2 (CDK9/CycT1 [1]) | IC50 (CDK9/CycT1 [2]) [nM] | IC50 (CDK2/CycE) [nM] | IC50 [3] [nM] | IC50 ([4]; Homo sapiens, 96 h) [nM] | IC50 [4] [nM] |
| --- | --- | --- | --- | --- | --- | --- | --- |
| CS(=N)(=O)Cc1cccc(Nc2ncc(F)c(-c3ccc(F)cc3F)n2)c1 (racemic) [Example 9, (rac)-4-(2,4-Difluorophenyl)-5-fluoro-N-{3-[(S-methylsulfonimidoyl)methyl]phenyl}pyrimidin-2-amine] | 42 | 25 | 2710 | 1100 | – | – | – |
| Cc1cc(CS(C)(=N)=O)cc(Nc2ncc(F)c(-c3ccc(F)cc3F)n2)c1 (racemic) [Example 17, (rac)-4-(2,4-Difluorophenyl)-5-fluoro-N-{3-methyl-5-[(S-methylsulfonimidoyl)methyl]phenyl}pyrimidin-2-amine] | 26 | 19 | 470 | 480 | 180 | 1360 | – |
| COCCS(=O)(Cc1cc(Nc2ncc(F)c(-c3ccc(F)cc3F)n2)cc(C(F)(F)F)c1)=NC#N (racemic) [Example 22, (rac)-{[3-{[4-(2,4-Difluorophenyl)-5-fluoropyrimidin-2-yl]amino}-5-(trifluoromethyl)benzyl](2-methoxyethyl)oxido-λ^6-sulfanylidene}cyanamide] | 7 | 183 | 19 | 1200 | – | 900 | – |
| N=S(=O)(CCN)Cc1cc(Nc2ncc(F)c(-c3ccc(F)cc3F)n2)cc(C(F)(F)F)c1 (racemic) [Example 25, (rac)-N-[3-{[S-(2-Aminoethyl)sulfonimidoyl]methyl}-5-(trifluoromethyl)phenyl]-4-(2,4-difluorophenyl)-5-fluoropyrimidin-2-amine trifluoroacetate] | 85 | 38 | 417 | 3200 | – | 2210 | – |
| N=S(=O)(CCN)Cc1cc(Nc2ncc(F)c(-c3ccc(F)cc3F)n2)cc(C(F)(F)F)c1 (single isomer, unassigned) [Example 27, N-[3-{[S-(2-Aminoethyl)sulfonimidoyl]methyl}-5-(trifluoromethyl)phenyl]-4-(2,4-difluorophenyl)-5-fluoropyrimidin-2-amine] | – | – | 276 | 1100 | – | – | – |
| Cc1cc(CS(C)(=N)=O)cc(Nc2ncc(F)c(-c3ccc(F)cc3F)n2)c1 (single isomer, unassigned) [Example 37, 4-(2,4-Difluorophenyl)-5-fluoro-N-{3-methyl-5-[(S-methylsulfonimidoyl)methyl]-phenyl}pyrimidin-2-amine] | 36 | 23 | 6310 | 830 | – | 1080 | – |
| Cc1cc(CS(C)(=N)=O)cc(Nc2ncc(F)c(-c3ccc(F)cc3F)n2)c1 (single isomer, unassigned) [Example 38, 4-(2,4-Difluorophenyl)-5-fluoro-N-{3-methyl-5-[(S-methylsulfonimidoyl)methyl]-phenyl}pyrimidin-2-amine] | 19 | 38 | 6490 | 720 | – | – | 649 |
